System: 485368-065-R3-J5-PDC spheroids with HUVEC/MSC, viability
Assay: Anticancer human tumor 485368-065-R3-J5-PDC patient-derived pancreatic carcinoma cell line growth inhibition [RAS]
Conditions: for IC50: curve of first compound; for viability, T/C: stronger effect = lower value
Source text: RAS pathway inhibitors in Combinations in Complex Spheroids
A high-throughput screen of multi-cell type tumor spheroids was designed to identify active combinations of RAS pathway inhibitors and targeted small molecules. Complex spheroids include a stromal component modeled by human endothelial cells (HUVEC) and fibroblasts modeled by human mesenchymal stem cells (MSCs). The concentration ranges selected for each drug and investigational agent were based upon clinically achievable concentrations if the clinical Cmax of the agent was known.
Compounds. The drugs and investigational agents: abemaciclib (NSC768073), cobimetinib (NSC768068), divarasib (GDC6063, NSC841802), docetaxel (NSC628503), GDC-1971 (RLY-1971, NSC841576), gemcitabine (NSC613327), inavolisib (NSC800729), ipatasertib (NSC767898), KB-0742 (NSC834161), MRTX-1133 (NSC836407), osimertinib (NSC779217), RMC-4630 (NSC839698), RMC-6236 (NSC851965), RMC-6291 (NSC852671), Ro-3306 (NSC812927), sapanisertib (NSC764658), SN-38 (NSC673596), staurosporine (NSC755774), SY5609 (NSC837396), and tovorafenib (DAY101, NSC766906), were obtained from the National Cancer Institute (NCI) Developmental Therapeutics Program Chemical Repository. The FDA-approved anticancer drug set is available from the NCI Developmental Therapeutics Program. […] The stock solutions were prepared in dimethyl sulfoxide (DMSO, Sigma-Aldrich, St. Louis, MO, cat. D2650) at 800-fold the tested concentration and stored at -70 degrees C prior to their use. All drugs and investigational agents were tested over a range starting from a high concentration at or near the clinical Cmax and decreasing in half-log increments. If the clinical Cmax for an agent had not been determined, the highest concentration tested was 10 microM.
Cell Culture. All cells were maintained in an incubator at 37 degrees C and 5% CO2 with 95% humidity. The PDC lines were cultured according to standard operating procedures established by the NCI PDMR. All PDCs were thawed and cultured in Matrigel-coated flasks prepared with a working solution of 1X Ham's F-12 nutrient mix, without supplementation (Invitrogen, Waltham, MA, cat. 11765054), 100 U/mL penicillin-streptomycin (Invitrogen, cat. 15140122), and 2.5% Matrigel (Corning Inc., Corning, NY, cat. 354248) for the first three passages. The 362531-283-R-J2-PDC and 782815-120-R-J1-PDC lines were cultured in 6C/Colon 1B media, which includes advanced DMEM/F-12 (Thermo Fisher Scientific, cat. 12634028), 10 mM HEPES (Thermo Fisher Scientific, cat. 15630080), 1X GlutaMAX supplement (Thermo Fisher Scientific, cat. 35050061), 0.1 mg/mL primocin (InvivoGen, San Diego, CA, cat. ant-pm-2), 10% defined fetal bovine serum, heat inactivated (HyClone Laboratories Inc., Logan, UT, cat. SH30070.03HI), 50% L-WRN conditioned media (ATCC, cat. CRL-3276), 1.25 mM N-Acetyl-L-cysteine (Sigma-Aldrich, cat. A9165), 10 mM nicotinamide (Sigma-Aldrich, cat. N0636), 1X B-27 supplement (Thermo Fisher Scientific, cat. 17504044), 1X N-2 supplement (Thermo Fisher Scientific, cat. 17502048), 50 ng/mL human EGF (Thermo Fisher Scientific, cat. PHG0311), and 10 microM Y-27632 dihydrochloride (Tocris Bioscience, cat. 1254). The K12877-001-R-J1-PDC line was cultured in 6I media, which includes all 6C/Colon 1B media plus 10 ng/mL human FGF-10 (PeproTech, cat. 100-26), 1 ng/mL human FGF-2 (PeproTech, cat. 100-18B), 1 µM prostaglandin E2 (Tocris Bioscience, cat. 2296), […] hydrocortisone (Sigma-Aldrich, cat. H4001), and […] bovine insulin (Sigma-Aldrich, cat. I6634). The K86415-001-R-J1-PDC line was cultured in 6D media, which includes all 6C/Colon 1B media components minus the L-WRN conditioned media. The 485176-168-R4-J1-PDC was cultured in PANC media, which includes all 6C/Colon 1B media plus 100 ng/mL human FGF-10 (PeproTech, cat. 100-26), 500 nM SB-431542 (Selleckchem, cat. S1067), and 10 nM gastrin (Tocris Bioscience, cat. 3006). […]

[1] = second compound 0.0316 µM, first compound 0.00316 µM
[2] = second compound 0.0316 µM, first compound 0.01 µM
[3] = second compound 0.0316 µM, first compound 0.0316 µM
[4] = second compound 0.0316 µM, first compound 0.1 µM
[5] = second compound 0.0316 µM, first compound 0.316 µM
[6] = second compound 0.0316 µM, first compound 1 µM
[7] = second compound 0.1 µM, first compound 0.00316 µM
[8] = second compound 0.1 µM, first compound 0.01 µM
[9] = second compound 0.1 µM, first compound 0.0316 µM
[10] = second compound 0.1 µM, first compound 0.1 µM
[11] = second compound 0.1 µM, first compound 0.316 µM
[12] = second compound 0.1 µM, first compound 1 µM
[13] = second compound 0.316 µM, first compound 0.00316 µM
[14] = second compound 0.316 µM, first compound 0.01 µM
[15] = second compound 0.316 µM, first compound 0.0316 µM
[16] = second compound 0.316 µM, first compound 0.1 µM
[17] = second compound 0.316 µM, first compound 0.316 µM
[18] = second compound 0.316 µM, first compound 1 µM
[19] = second compound 1 µM, first compound 0.00316 µM
[20] = second compound 1 µM, first compound 0.01 µM
[21] = second compound 1 µM, first compound 0.0316 µM
[22] = second compound 1 µM, first compound 0.1 µM
[23] = second compound 1 µM, first compound 0.316 µM
[24] = second compound 1 µM, first compound 1 µM
[25] = second compound 3.16 µM, first compound 0.00316 µM
[26] = second compound 3.16 µM, first compound 0.01 µM
[27] = second compound 3.16 µM, first compound 0.0316 µM
[28] = second compound 3.16 µM, first compound 0.1 µM
[29] = second compound 3.16 µM, first compound 0.316 µM
[30] = second compound 3.16 µM, first compound 1 µM
[31] = second compound 10 µM, first compound 0.00316 µM
[32] = second compound 10 µM, first compound 0.01 µM
[33] = second compound 10 µM, first compound 0.0316 µM
[34] = second compound 10 µM, first compound 0.1 µM
[35] = second compound 10 µM, first compound 0.316 µM
[36] = second compound 10 µM, first compound 1 µM
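Note: spheroids exposed to agents for seven days before readout.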

## C=CC(=O)Nc1cc(Nc2nccc(-c3cn(C)c4ccccc34)n2)c(OC)cc1N(C)CCN(C)C + C#Cc1c(F)ccc2cc(O)cc(-c3ncc4c(N5CC6CCC(C5)N6)nc(OCC56CCCN5CC(F)C6)nc4c3F)c12
Second compound 0.0316 µM
  IC50: > 1000 nM
Second compound 0.1 µM
  IC50: > 1000 nM
Second compound 0.316 µM
  IC50: > 1000 nM
Second compound 1 µM
  IC50: > 1000 nM
Second compound 3.16 µM
  IC50: > 1000 nM
Second compound 10 µM
  IC50: < 3.16 nM
[1]
  viability, T/C: 103%
[2]
  viability, T/C: 101%
[3]
  viability, T/C: 106%
[4]
  viability, T/C: 104%
[5]
  viability, T/C: 101%
[6]
  viability, T/C: 89.7%
[7]
  viability, T/C: 97%
[8]
  viability, T/C: 95.8%
[9]
  viability, T/C: 95.8%
[10]
  viability, T/C: 108%
[11]
  viability, T/C: 108%
[12]
  viability, T/C: 96.2%
[13]
  viability, T/C: 107%
[14]
  viability, T/C: 97.3%
[15]
  viability, T/C: 96.1%
[16]
  viability, T/C: 103%
[17]
  viability, T/C: 101%
[18]
  viability, T/C: 85.5%
[19]
  viability, T/C: 106%
[20]
  viability, T/C: 98.9%
[21]
  viability, T/C: 100%
[22]
  viability, T/C: 97.3%
[23]
  viability, T/C: 83.3%
[24]
  viability, T/C: 74.6%
[25]
  viability, T/C: 78%
[26]
  viability, T/C: 83.6%
[27]
  viability, T/C: 72.4%
[28]
  viability, T/C: 67.6%
[29]
  viability, T/C: 63.3%
[30]
  viability, T/C: 49.8%
[31]
  viability, T/C: 48%
[32]
  viability, T/C: 43.7%
[33]
  viability, T/C: 37%
[34]
  viability, T/C: 37.3%
[35]
  viability, T/C: 28.6%
[36]
  viability, T/C: 30.1%

## O=C(c1ccc(F)c(F)c1Nc1ccc(I)cc1F)N1CC(O)([C@@H]2CCCCN2)C1 + C#Cc1c(F)ccc2cc(O)cc(-c3ncc4c(N5CC6CCC(C5)N6)nc(OCC56CCCN5CC(F)C6)nc4c3F)c12
Second compound 0.0316 µM
  IC50: 31.5 nM
Second compound 0.1 µM
  IC50: 33.7 nM
Second compound 0.316 µM
  IC50: 37.5 nM
Second compound 1 µM
  IC50: 26.3 nM
Second compound 3.16 µM
  IC50: 8.98 nM
Second compound 10 µM
  IC50: < 3.16 nM
[1]
  viability, T/C: 90.3%
[2]
  viability, T/C: 65.9%
[3]
  viability, T/C: 49.5%
[4]
  viability, T/C: 31.9%
[5]
  viability, T/C: 28.1%
[6]
  viability, T/C: 8.9%
[7]
  viability, T/C: 80.8%
[8]
  viability, T/C: 68.9%
[9]
  viability, T/C: 50%
[10]
  viability, T/C: 32.3%
[11]
  viability, T/C: 26%
[12]
  viability, T/C: 9.17%
[13]
  viability, T/C: 91.1%
[14]
  viability, T/C: 73%
[15]
  viability, T/C: 46.6%
[16]
  viability, T/C: 39.4%
[17]
  viability, T/C: 25.4%
[18]
  viability, T/C: 9%
[19]
  viability, T/C: 87.4%
[20]
  viability, T/C: 62%
[21]
  viability, T/C: 48.6%
[22]
  viability, T/C: 31.1%
[23]
  viability, T/C: 22.5%
[24]
  viability, T/C: 8.96%
[25]
  viability, T/C: 58.8%
[26]
  viability, T/C: 50%
[27]
  viability, T/C: 38.7%
[28]
  viability, T/C: 24%
[29]
  viability, T/C: 19.9%
[30]
  viability, T/C: 5.77%
[31]
  viability, T/C: 45.1%
[32]
  viability, T/C: 29.8%
[33]
  viability, T/C: 26.5%
[34]
  viability, T/C: 17.2%
[35]
  viability, T/C: 11.2%
[36]
  viability, T/C: 3.65%
